From patent publication US11317631B2, “Natamycin compositions and uses thereof” (Arec Crop Protection B.V., priority 2016, dated 2022)
Where two headings read alike, the source gives them in different places.

Assays:
[1] = BET surface area analysis; format: physicochemical; set-up: BET analysis: dose or concentration left out as unconfirmed; conditions: for BET analysis: milled to a particle size of 2 μm; for BET: batches of Table 20
Method: Surface area may be measured by any suitable methods or techniques known in the art. For example, with respect to the variations described above, the surface area is measured by BET (also known in the art as Brunauer, Emmett and Tellers analysis theory). Using BET analysis, the surface area of the natamycin composition may be determined by physical adsorption of nitrogen (N2) gas on the surface of the natamycin composition, which is a solid. The value of the BET analysis is expressed as m^2 per gram of solid material.
Brunauer, Emmett, and Tellers (BET) analysis theory was used to determine the surface area (expressed as m^2/g) for Natamycin Composition A and Control Natamycin. Each sample was milled to a particle size of […] prior to BET analysis.

Fusarium graminearum = format: in vivo; conditions: for Average Vigor: 0-10 scale
[2] = Saturation studies: dissolution in water with 5% polysorbate 80, HPLC peak areas; format: physicochemical; conditions: water + 5% polysorbate 80, 22° C.
Method: Saturation studies were performed on Natamycin Composition A and Control Natamycin, both at 25% (w/w %) suspension in water. […] To prepare the samples for solubility analysis, a plastic pipet was used to add 3 drops (0.25 mL) of thoroughly shaken formulation to 10 mL of the dissolution medium. […] Then, 0.05 mL of the mobile phase was added to 0.25 mL of the filtrated natamycin aliquot. The aliquots were then injected individually onto a high performance liquid chromatography (HPLC) column and the resulting peak areas were calculated. […] The column temperature was set to 25° C. and the natamycin was detected at a wavelength of 304 nm.

[3] = Liquid phase concentration of natamycin in the suspensions (centrifugation, HPLC); format: physicochemical; conditions: supernatant of suspension in water
Method: The supernatants were then collected and diluted 10-fold with an acetonitrile:water (3:7) solution. The concentration of natamycin in the liquid layer was then determined by injecting the samples individually onto an HPLC and comparing the UV-Vis absorption to that of a standard natamycin stock solution.

Saccharomyces cerevisiae [4] = experiment: Bioavailability: filter disc inhibition zone on yeast agar plates (Examples 15 and 16); format: cell-based; conditions: 10 μl of 3 mM natamycin
Method: Saccharomyces cerevisiae (at least 10^5 cfu/ml) was distributed on Petri dishes with a diameter of 145 mm containing 30 ml Potato Dextrose Agar (PDA; Carl Roth; pH of about 6) using sterilized swabs. […] Following the application of a filter, Petri dishes were incubated for 16 h h in a refrigerator at 4° C. to allow diffusion of natamycin into the agar. After 16 h the filter discs were removed from the agar and the Petri dishes were incubated upside down in a stove at 30° C. […] After 24 h incubation in the stove the size of the inhibition zone was determined using a digital caliper gauge. The data are presented as square mm and are an average of six replicas. The effect of 3 mM natamycin on yeast growth in Petri dishes was determined as described herein above. Numbers represent surface of inhibition zones expressed in square mm. Same methods as described above in Example 15. The effect of 3 mM natamycin on yeast growth in Petri dishes was determined as described herein above, unless otherwise indicated.

Botrytis cinerea = experiment: Botrytis on wounded apples (Examples 18 to 20); format: in vivo
Method: Tested fruit: apples […] from organic origin/SKAL certified. SKAL is a semi-governmental Dutch organization that controls organic production in the Netherlands. Wounds of the apples were checked at day 3. Natamycin with different proteins and starch contents were tested at a natamycin concentration of 100 ppm. Used pathogen: Botrytis cinerea spore-suspension containing 2*10^6 spores/ml. Application: The fruit peel of the apple was damaged with a cork borer, ø 4 mm and depth 0.5 cm into the fruit, with 2 wounds per apple. 40 microliter of a freshly prepared spore suspension of B. cinerea was applied by pipette onto each wound. Subsequently, the spore-suspension was allowed to air-dry for 4 hours. Then, 50 microliter of a treatment as presented in the list above was applied by pipette to each wound. All fruits were kept at room temperature (20° C.). Wounds of the apples were checked after 3 days of incubation. The efficacy was calculated by measuring the surface area (square mm) of the rot on the apples compared to the untreated control (see Tables 31 and 32). Replicates: All treatments for the apple experiment were performed on six individual apples with two wounds each resulting in 12 wounds per treatment. This experiment was performed as described in Example 18. This experiment was performed as described in Example 19. Natamycin A and Natamycin E were used at different concentrations and data were recorded at different time points, as is indicated in Table 35.

[5] = Average particle size of natamycin batches (Example 14); format: physicochemical; conditions: batches of Table 20
From the text: Methods for determining the average size of particles in a composition are known to the skilled person. For example, Hukkanen and Braatz, 2003. Sensors and Actuators B 96: 451-459, discuss varies methods that can be used for determining the average particle size in a composition, including forward light scattering and ultrasonic extinction. A preferred method is sieve analysis or laser diffraction analysis, for example using a Analysette 22-MicroTec plus laser-particle-sizer (Fritsch, Idar-Oberstein, Germany).
Several batches of crude natamcyin, prepared as described herein above, and commercial batches of purified natamycin (95%) were obtained and analysed.

Saccharomyces cerevisiae [6] = experiment: Bioavailability: filter disc inhibition zone, disc moved to a new plate after 24 h (Example 17); format: cell-based; conditions: 50 μl of 3 mM natamycin
Method: Saccharomyces cerevisiae (at least 10^5 cfu/ml) was distributed on Petri dishes with a diameter of 90 mm containing 10 ml PDA agar (Carl Roth, pH about 6) using sterilized swabs. Filter paper discs (Whatman) with a diameter of 6 mm were loaded with 50 μl of a solution containing a concentration of 3 mM natamycin. The size of the inhibition zone is a result of the natamycin released from the sample disc. After 24 h of incubation in the stove the size of the inhibition zone was measured using a digital caliper gauge. After measuring, the filter discs were removed and replaced on a new Petri dish similar to the previous one (90 mm containing 10 ml PDA agar and Saccharomyces cerevisiae (at least 10^5 cfu/ml) distributed by swabs). 24 hours after the replacement of the filters, the inhibition zone was measured again. The data are presented as square mm and are an average of four replicas.

For `C[C@@H]1C/C=C/C=C/C=C/C=C/[C@H](O[C@@H]2O[C@H](C)[C@@H](O)[C@H](N)[C@@H]2O)C[C@@H]2O[C@](O)(C[C@@H](O)C[C@H]3O[C@@H]3/C=C/C(=O)O1)C[C@H](O)[C@H]2C(=O)O` [Control Natamycin, comprising natamycin F], the BET analysis [1] was 9.4 m^2/g.

With `C[C@@H]1C/C=C/C=C/C=C/C=C/[C@H](O[C@@H]2O[C@H](C)[C@@H](O)[C@H](N)[C@@H]2O)C[C@@H]2O[C@](O)(C[C@@H](O)C[C@H]3O[C@@H]3/C=C/C(=O)O1)C[C@H](O)[C@H]2C(=O)O` [Control Natamycin, comprising natamycin batch # 140206] the BET analysis [1] was 7.7 m^2/g.

With `C[C@@H]1C/C=C/C=C/C=C/C=C/[C@H](O[C@@H]2O[C@H](C)[C@@H](O)[C@H](N)[C@@H]2O)C[C@@H]2O[C@](O)(C[C@@H](O)C[C@H]3O[C@@H]3/C=C/C(=O)O1)C[C@H](O)[C@H]2C(=O)O` [Control Natamycin, natamycin] the “Number of plants at last count” value (Fusarium graminearum; 2.5 g AI/100 kg) was 47, the Plant loss (Fusarium graminearum; 2.5 g AI/100 kg) was 52% and the “Average Vigor” value (Fusarium graminearum; 2.5 g AI/100 kg) was 7.9. For the same compound, the “Number of plants at last count” value (Fusarium graminearum; 5 g AI/100 kg) was 45, the Plant loss (Fusarium graminearum; 5 g AI/100 kg) was 52% and the “Average Vigor” value (Fusarium graminearum; 5 g AI/100 kg) was 7.8. For the same compound, the “Number of plants at last count” value (Fusarium graminearum; 10 g AI/100 kg) was 36, the Plant loss (Fusarium graminearum; 10 g AI/100 kg) was 62% and the “Average Vigor” value (Fusarium graminearum; 10 g AI/100 kg) was 7.5. For the same compound, the “Number of plants at last count” value (Fusarium graminearum; 20 g AI/100 kg) was 45, the Plant loss (Fusarium graminearum; 20 g AI/100 kg) was 52% and the “Average Vigor” value (Fusarium graminearum; 20 g AI/100 kg) was 7.7. For the same compound, the HPLC peak area ([2]; 20 s) was 3966 mAUs, the HPLC peak area ([2]; 60 s) was 4077 mAUs and the HPLC peak area ([2]; 300 s) was 4005 mAUs. For the same compound, the “average BET surface area” value ([1]; average of the trials of Table 4) was 8.5 m^2/g and the “Natamycin in the liquid phase” value [3] was 68 µg/mL.

`C[C@@H]1C/C=C/C=C/C=C/C=C/[C@H](O[C@@H]2O[C@H](C)[C@@H](O)[C@H](N)[C@@H]2O)C[C@@H]2O[C@](O)(C[C@@H](O)C[C@H]3O[C@@H]3/C=C/C(=O)O1)C[C@H](O)[C@H]2C(=O)O` [Natamycin 140206, natamycin] showed an Inhibition zone (Saccharomyces cerevisiae [4]; Table 22) of 167 mm^2 and a BET [1] of 7.73 m^2/g.

`C[C@@H]1C/C=C/C=C/C=C/C=C/[C@H](O[C@@H]2O[C@H](C)[C@@H](O)[C@H](N)[C@@H]2O)C[C@@H]2O[C@](O)(C[C@@H](O)C[C@H]3O[C@@H]3/C=C/C(=O)O1)C[C@H](O)[C@H]2C(=O)O` [Natamycin E, natamycin] gave an Inhibition zone (Saccharomyces cerevisiae [4]; Table 24) of 242 mm2, an Inhibition zone (Saccharomyces cerevisiae [4]; Table 26) of 188 mm2 and an Inhibition zone (Saccharomyces cerevisiae [4]; Table 27) of 179 mm2. It also gave an Inhibition zone (Saccharomyces cerevisiae [4]; Table 28) of 110 mm2, an Efficacy (Botrytis cinerea; Table 32, 100 ppm natamycin, day 3) of 54% and an Efficacy (Botrytis cinerea; Table 34, day 3) of 75%. It also gave an Efficacy (Botrytis cinerea; Table 34, day 5) of 58%, an Efficacy (Botrytis cinerea; Table 34, day 7) of 53% and an Efficacy (Botrytis cinerea; Table 34, day 9) of 42%. For the same compound, the Efficacy (Botrytis cinerea; Table 35, 100 ppm, day 3) was 84%, the Efficacy (Botrytis cinerea; Table 35, 100 ppm, day 5) was 41% and the Efficacy (Botrytis cinerea; Table 35, 100 ppm, day 7) was 12%. For the same compound, the Efficacy (Botrytis cinerea; Table 35, 2000 ppm, day 3) was 100%, the Efficacy (Botrytis cinerea; Table 35, 2000 ppm, day 5) was 62% and the Efficacy (Botrytis cinerea; Table 35, 2000 ppm, day 7) was 50%. For the same compound, the “D0.5 (average particle size of the particles)” value [5] was 14.4 μm, the Inhibition zone (Saccharomyces cerevisiae [6]; 24 h) was 480 mm^2 and the Inhibition zone (Saccharomyces cerevisiae [6]; 48 h (disc replaced on a new plate after 24 h)) was 298 mm^2.

With `C[C@@H]1C/C=C/C=C/C=C/C=C/[C@H](O[C@@H]2O[C@H](C)[C@@H](O)[C@H](N)[C@@H]2O)C[C@@H]2O[C@](O)(C[C@@H](O)C[C@H]3O[C@@H]3/C=C/C(=O)O1)C[C@H](O)[C@H]2C(=O)O` [Natamycin F, natamycin] the Inhibition zone (Saccharomyces cerevisiae [4]; Table 21, 16 h 4° C. then 24 h 30° C.) was 183 mm^2, the Inhibition zone (Saccharomyces cerevisiae [4]; Table 25) was 142 mm2 and the Inhibition zone (Saccharomyces cerevisiae [4]; Table 29) was 100 mm2. The Efficacy (Botrytis cinerea; Table 33, 100 ppm natamycin, day 3) was 60.2%, the BET [1] was 9.36 m^2/g and the “D0.5 (average particle size of the particles)” value [5] was 15.3 μm.
